In ChEMBL document CHEMBL1201862, “PubChem BioAssay data set” (2004):
Activity calls are given as the source filed them.

Columns and labels:
[1] = molecular target: Induced myeloid leukemia cell differentiation protein Mcl-1 (Homo sapiens, UniProt Q07820); experiment: MCL1-BIM BH3 interaction inhibitors, dose response, biochemical, fluorescence polarization, BIM-BH3 peptide, 1536-well (AID 2217)
Bcl-2-like protein 1 = Bcl-2-like protein 1 (Homo sapiens, UniProt Q07817); experiment: BCL-XL inhibitors, dose response, selectivity assay for MCL1 inhibitor project, biochemical, fluorescence polarization, 1536-well (AID 2218)
Sequence of Bcl-2-like protein 1 (Q07817 whole entry): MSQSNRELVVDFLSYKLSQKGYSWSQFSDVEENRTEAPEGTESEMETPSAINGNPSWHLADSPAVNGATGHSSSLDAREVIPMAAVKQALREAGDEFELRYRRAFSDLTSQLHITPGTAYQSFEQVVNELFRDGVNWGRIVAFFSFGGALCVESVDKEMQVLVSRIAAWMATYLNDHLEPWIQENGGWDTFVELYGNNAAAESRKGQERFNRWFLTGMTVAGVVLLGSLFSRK

[2] = molecular target: T1, Calpain-2 catalytic subunit (Sus scrofa, UniProt P43367); experiment: pig calpain II inhibitor potency, dose response, biochemical, fluorogenic peptide substrate (AID 1420); format: functional
T1 sequence (P43367 whole entry): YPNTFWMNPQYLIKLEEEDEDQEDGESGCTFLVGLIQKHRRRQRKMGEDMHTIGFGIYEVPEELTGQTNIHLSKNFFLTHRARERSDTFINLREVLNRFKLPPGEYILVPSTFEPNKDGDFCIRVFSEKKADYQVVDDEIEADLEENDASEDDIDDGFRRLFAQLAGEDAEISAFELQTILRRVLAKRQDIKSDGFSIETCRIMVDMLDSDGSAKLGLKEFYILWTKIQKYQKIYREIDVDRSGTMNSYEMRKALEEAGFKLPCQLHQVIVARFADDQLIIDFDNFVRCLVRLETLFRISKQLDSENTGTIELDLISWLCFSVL

14-3-3 protein gamma = 14-3-3 protein gamma (Homo sapiens, UniProt P61981); experiment: modulators of 14-3-3 gamma client binding – dose response (AID 711); format: functional
Sequence of 14-3-3 protein gamma (P61981 whole entry): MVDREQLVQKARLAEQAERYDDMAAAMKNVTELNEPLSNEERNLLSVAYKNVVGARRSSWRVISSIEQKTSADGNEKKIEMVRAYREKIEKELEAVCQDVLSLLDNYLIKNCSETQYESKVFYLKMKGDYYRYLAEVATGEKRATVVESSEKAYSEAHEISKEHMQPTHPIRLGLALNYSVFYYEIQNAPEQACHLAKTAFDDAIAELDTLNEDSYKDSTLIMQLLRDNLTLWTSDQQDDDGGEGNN

[3] = Luminescence Cell-Based Dose Response HTS to Identify Activators of Luciferase Translation or Activity in H4 […] Cells. [Related pubchem assays: 1829 (Project Summary), 1814 (Primary HTS)]; format: functional
H4 = experiment: Luminescence Cell-Based Dose Response HTS to Identify Activators of 5'UTR Stem-Loop Driven Prion Protein mRNA Translation in H4 Neuroglioblastoma Cells. [Related pubchem assays: 1829 (Project Summary), 1814 (Primary HTS)]; format: functional; settings: Homo sapiens
Large T antigen = Large T antigen (Simian virus 40, UniProt P03070); format: functional, Betapolyomavirus macacae;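 also: Confirmatory-stage PubChem screen for compounds that inhibit SV40 T antigen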
Sequence of Large T antigen (P03070 whole entry): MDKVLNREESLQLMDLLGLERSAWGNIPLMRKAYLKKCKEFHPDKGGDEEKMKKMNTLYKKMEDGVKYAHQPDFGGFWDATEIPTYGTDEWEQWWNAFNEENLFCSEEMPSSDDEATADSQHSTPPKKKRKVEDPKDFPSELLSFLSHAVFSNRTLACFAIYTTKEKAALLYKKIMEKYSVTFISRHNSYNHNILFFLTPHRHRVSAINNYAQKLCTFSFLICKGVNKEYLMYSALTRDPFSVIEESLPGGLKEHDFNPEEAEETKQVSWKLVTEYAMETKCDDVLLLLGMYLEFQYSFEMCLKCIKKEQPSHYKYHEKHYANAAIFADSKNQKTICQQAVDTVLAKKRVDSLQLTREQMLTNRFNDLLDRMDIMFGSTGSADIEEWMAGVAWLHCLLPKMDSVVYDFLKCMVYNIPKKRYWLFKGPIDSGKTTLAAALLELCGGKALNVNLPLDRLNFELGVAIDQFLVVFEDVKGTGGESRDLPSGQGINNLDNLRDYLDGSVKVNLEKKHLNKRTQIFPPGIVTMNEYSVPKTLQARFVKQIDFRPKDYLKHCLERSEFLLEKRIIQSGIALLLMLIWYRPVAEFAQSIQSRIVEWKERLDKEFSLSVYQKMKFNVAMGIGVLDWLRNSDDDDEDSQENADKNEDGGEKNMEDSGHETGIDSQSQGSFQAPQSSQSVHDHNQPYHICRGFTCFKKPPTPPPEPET

[4] = Luminescence Cell-Based Dose Confirmation HTS to Identify Activators of 5'UTR Stem-Loop Driven Alpha-Synuclein mRNA Translation in H4 Neuroglioblastoma Cells. [Related pubchem assays: 1829 (Project Summary), 1814 (Primary HTS)]; format: functional
Estrogen receptor beta = Estrogen receptor beta (Homo sapiens, UniProt Q92731); experiment: ERβ–SRC-3 coactivator interaction inhibitors, confirmation, orthogonal assay, biochemical, ELISA, streptavidin-HRP readout (AID 1060)
Sequence of Estrogen receptor beta (Q92731 whole entry): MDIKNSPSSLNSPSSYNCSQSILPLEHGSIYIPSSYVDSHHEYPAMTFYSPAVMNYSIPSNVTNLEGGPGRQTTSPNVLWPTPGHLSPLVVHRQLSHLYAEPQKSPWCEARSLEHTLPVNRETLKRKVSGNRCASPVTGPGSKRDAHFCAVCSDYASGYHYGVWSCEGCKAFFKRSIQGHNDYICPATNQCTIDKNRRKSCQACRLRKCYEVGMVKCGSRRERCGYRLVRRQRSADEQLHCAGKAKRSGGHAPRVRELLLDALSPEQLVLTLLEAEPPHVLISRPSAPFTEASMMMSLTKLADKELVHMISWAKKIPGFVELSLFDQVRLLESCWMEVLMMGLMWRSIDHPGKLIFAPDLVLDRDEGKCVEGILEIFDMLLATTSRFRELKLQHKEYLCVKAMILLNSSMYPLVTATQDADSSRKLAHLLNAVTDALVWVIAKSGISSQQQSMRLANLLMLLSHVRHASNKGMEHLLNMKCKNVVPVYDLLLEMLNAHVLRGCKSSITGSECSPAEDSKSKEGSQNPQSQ

Cytochrome P450 3A4 = Cytochrome P450 3A4 (Homo sapiens, UniProt P08684);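 also: CYP3A4 tested as one member of a cytochrome P450 panel screen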
Sequence of Cytochrome P450 3A4 (P08684 whole entry): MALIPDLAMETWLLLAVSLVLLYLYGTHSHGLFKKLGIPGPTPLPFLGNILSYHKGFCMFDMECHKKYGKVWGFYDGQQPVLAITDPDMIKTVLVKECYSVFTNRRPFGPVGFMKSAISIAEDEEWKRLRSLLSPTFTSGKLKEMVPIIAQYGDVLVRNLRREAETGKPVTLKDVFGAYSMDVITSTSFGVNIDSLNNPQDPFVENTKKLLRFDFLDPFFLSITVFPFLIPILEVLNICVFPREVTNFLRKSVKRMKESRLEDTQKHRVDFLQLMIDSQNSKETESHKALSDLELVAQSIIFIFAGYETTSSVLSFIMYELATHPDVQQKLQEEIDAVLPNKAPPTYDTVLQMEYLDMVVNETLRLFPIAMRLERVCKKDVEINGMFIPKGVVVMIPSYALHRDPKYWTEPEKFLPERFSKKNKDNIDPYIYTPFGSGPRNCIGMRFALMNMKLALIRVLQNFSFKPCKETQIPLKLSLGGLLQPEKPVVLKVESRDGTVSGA

[5] = molecular target: Aryl hydrocarbon receptor (Homo sapiens, UniProt P35869); experiment: Luminescence-based cell-based high throughput dose response assay for activators of the Aryl Hydrocarbon Receptor (AHR). [Related pubchem assays: 2796 (Primary screen (AHR activators in singlicate)), 2845 (Confirmation screen (AHR activators in triplicate)), 434939 (Counterscreen (PXR activators in triplicate)), 2804 (Summary (AHR activators))]; format: ADME
Sequence of Aryl hydrocarbon receptor (P35869 whole entry): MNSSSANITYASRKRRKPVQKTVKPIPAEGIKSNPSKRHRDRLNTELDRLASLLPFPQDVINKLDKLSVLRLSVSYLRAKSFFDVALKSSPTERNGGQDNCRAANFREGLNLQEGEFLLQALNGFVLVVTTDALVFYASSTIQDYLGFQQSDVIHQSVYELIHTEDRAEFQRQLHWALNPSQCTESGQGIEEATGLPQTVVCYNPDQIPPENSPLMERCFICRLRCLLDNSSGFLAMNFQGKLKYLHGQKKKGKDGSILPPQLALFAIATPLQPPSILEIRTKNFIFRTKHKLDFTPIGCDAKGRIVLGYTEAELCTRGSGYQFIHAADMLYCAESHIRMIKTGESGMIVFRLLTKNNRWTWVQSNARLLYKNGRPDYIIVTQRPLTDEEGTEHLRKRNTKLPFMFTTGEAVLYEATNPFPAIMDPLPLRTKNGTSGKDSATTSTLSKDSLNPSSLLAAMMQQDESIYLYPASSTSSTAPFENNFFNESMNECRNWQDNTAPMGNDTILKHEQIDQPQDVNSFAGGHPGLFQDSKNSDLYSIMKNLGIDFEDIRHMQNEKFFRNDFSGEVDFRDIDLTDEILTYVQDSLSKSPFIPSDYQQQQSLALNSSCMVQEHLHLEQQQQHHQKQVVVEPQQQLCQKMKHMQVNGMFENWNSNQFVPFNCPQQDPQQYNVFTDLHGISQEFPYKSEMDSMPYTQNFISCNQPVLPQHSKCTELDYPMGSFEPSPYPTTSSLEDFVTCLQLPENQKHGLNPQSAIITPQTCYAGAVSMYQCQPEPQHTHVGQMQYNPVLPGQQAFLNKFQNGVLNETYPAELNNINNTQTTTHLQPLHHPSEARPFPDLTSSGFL

NADPH oxidase 1 = NADPH oxidase 1 (Homo sapiens, UniProt Q9Y5S8); format: functional, cell-based;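 also: Cell-based assay with luminescence read-out, IC50 derived from inhibitor dose-response curves; intracellular ROS from endogenous NOX1 in intact HT29 colon cancer cells; potency of inhibitors that lower the ROS luminescence signal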
Sequence of NADPH oxidase 1 (Q9Y5S8 whole entry, the tested form may be a part): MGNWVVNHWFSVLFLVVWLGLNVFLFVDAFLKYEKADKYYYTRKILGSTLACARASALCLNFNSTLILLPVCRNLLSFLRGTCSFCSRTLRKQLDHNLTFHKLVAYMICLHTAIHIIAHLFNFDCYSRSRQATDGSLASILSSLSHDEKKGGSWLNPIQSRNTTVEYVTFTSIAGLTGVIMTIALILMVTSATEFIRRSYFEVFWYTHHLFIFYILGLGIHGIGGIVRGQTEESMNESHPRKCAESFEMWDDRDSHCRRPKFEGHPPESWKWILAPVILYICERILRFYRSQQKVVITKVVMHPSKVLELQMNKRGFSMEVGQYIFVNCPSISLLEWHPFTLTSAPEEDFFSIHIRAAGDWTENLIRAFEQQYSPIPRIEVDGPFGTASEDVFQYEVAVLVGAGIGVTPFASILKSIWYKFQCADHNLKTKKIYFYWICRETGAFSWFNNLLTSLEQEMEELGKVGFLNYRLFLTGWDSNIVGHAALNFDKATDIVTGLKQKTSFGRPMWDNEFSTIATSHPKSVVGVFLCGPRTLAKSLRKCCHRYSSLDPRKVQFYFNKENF

Estrogen receptor = molecular target: T2, Estrogen receptor (Homo sapiens, UniProt P03372); experiment: potentiators of ERα–SRC-1 coactivator binding, dose response, biochemical, TR-FRET, ERα LBD (AID 737)
T2 sequence (P03372 whole entry): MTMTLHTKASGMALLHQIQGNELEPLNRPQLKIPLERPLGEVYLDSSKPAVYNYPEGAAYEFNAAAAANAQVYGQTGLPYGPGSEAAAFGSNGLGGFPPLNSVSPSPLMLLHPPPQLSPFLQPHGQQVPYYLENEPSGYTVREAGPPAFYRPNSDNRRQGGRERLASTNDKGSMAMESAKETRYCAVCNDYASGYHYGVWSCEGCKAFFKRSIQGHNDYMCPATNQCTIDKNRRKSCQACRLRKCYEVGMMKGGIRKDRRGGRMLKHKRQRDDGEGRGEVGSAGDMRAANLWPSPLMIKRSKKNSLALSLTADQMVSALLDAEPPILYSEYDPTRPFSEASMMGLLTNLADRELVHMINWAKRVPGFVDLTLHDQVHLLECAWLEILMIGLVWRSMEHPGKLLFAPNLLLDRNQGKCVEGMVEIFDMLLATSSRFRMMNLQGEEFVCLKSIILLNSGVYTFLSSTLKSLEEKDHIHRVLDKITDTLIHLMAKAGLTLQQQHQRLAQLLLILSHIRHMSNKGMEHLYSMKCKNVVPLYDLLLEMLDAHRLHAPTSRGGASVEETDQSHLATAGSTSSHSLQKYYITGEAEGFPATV

[6] = inhibitors of intracellular T. cruzi replication, confirmation, NIH3T3 host cells, beta-gal luminescence (AID 2044); format: functional, cell-based;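 also: intracellular parasites grown in NIH/3T3 mouse fibroblasts as host cells; luminescent beta-galactosidase reporter signal from transgenic T. cruzi replicating inside host cells; inhibitors lower the luminescence signal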
[7] = Luminescence Cell-Based Dose Retest to Confirm Inhibitors of Cancer Stem Cells. [Related pubchem assays (depositor defined):AID2717, AID2721]; format: functional; settings: Homo sapiens
[8] = cytotoxicity toward NIH3T3 fibroblasts, dose response, counter-screen, cell-based, ATP luminescence, mouse fibroblasts (AID 2010); format: functional;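 also: cells exposed to compound for about 90 hours before reading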
Vero = experiment: host cell cytotoxicity of antiviral hits, dose response, cytotoxicity control for West Nile virus antiviral project, secondary assay (AID 1650); format: functional; settings: Chlorocebus sabaeus
Melanocortin receptor 4 = Melanocortin receptor 4 (Homo sapiens, UniProt P32245); format: functional, cell-based;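 also: Cell-based assay with luminescence read-out, confirmatory dose-response testing for agonist activity of biased ligands at MC4R; human U2OS cells with tagged receptor and beta-arrestin; potency of agonists that increase receptor coupling to beta-arrestin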
Sequence of Melanocortin receptor 4 (P32245 whole entry): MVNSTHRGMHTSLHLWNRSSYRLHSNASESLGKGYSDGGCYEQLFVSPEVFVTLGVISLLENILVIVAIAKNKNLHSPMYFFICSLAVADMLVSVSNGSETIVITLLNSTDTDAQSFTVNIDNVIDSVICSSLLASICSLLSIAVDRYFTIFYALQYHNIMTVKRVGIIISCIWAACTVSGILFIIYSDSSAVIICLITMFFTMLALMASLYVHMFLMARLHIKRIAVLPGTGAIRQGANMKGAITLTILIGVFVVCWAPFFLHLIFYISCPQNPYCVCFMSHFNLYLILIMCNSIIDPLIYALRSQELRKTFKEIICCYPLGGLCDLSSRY

INS1 = experiment: beta cell apoptosis inhibitors, cytokine rescue, dose response, luminescence, retest (AID 449756); format: functional, cell-based; settings: Rattus norvegicus;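 also: cell death triggered by IL-1 beta plus TNF-alpha plus IFN-gamma mixture; protective hits raise ATP signal compared with cytokine alone wells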
[9] = molecular target: Heat shock protein HSP 90-alpha (Homo sapiens, UniProt P07900); format: functional, organism-based
[10] = molecular target: T3, Zinc finger protein mex-5 (Caenorhabditis elegans, UniProt Q9XUB2); experiment: MEX-5/TCR-2 RNA interaction inhibitors, dose response, biochemical, C. elegans, fluorescence polarization (AID 1960)
T3 sequence (Q9XUB2 whole entry): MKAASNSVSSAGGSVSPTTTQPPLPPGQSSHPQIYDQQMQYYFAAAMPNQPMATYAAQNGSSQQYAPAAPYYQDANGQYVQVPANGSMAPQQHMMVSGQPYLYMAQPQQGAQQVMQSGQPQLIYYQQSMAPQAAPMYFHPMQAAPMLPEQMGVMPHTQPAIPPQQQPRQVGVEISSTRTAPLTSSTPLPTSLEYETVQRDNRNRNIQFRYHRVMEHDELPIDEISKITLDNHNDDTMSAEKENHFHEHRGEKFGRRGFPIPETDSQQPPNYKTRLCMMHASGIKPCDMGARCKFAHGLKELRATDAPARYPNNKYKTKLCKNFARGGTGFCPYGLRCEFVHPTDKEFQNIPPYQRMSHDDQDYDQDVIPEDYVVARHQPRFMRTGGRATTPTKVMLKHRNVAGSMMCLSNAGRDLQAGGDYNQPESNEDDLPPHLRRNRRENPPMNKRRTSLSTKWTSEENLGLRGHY

[11] = molecular target: T4, RNA-binding protein pos-1 (Caenorhabditis elegans, UniProt G5EF15); experiment: inhibitors of POS-1/mex-3 RNA binding, dose response, biochemical, fluorescence polarization (AID 1964);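 also: purified POS-1 fused to maltose binding protein made in E. coli; potency of compounds blocking POS-1 binding to fluorescent RNA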
T4 sequence (G5EF15 whole entry): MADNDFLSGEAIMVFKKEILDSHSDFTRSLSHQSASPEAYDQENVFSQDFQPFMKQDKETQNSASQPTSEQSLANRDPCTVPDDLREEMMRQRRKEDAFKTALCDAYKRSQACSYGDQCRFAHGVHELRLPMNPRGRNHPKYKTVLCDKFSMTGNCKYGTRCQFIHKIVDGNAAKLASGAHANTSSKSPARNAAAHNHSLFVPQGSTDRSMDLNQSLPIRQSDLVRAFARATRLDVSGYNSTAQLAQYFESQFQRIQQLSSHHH

[12] = molecular target: T5, Long-chain-fatty-acid--AMP ligase FadD28 (Mycobacterium tuberculosis, UniProt P9WQ59); experiment: Fluorescence polarization aasay to screen for inhibitors that compete for the binding of FadD28 to a bisubstrate Measured in Biochemical System Using Plate Reader - 2147-01_Inhibitor_Dose_CherryPick_Activity.; format: functional, Mycobacterium tuberculosis H37Rv
T5 sequence (P9WQ59 whole entry): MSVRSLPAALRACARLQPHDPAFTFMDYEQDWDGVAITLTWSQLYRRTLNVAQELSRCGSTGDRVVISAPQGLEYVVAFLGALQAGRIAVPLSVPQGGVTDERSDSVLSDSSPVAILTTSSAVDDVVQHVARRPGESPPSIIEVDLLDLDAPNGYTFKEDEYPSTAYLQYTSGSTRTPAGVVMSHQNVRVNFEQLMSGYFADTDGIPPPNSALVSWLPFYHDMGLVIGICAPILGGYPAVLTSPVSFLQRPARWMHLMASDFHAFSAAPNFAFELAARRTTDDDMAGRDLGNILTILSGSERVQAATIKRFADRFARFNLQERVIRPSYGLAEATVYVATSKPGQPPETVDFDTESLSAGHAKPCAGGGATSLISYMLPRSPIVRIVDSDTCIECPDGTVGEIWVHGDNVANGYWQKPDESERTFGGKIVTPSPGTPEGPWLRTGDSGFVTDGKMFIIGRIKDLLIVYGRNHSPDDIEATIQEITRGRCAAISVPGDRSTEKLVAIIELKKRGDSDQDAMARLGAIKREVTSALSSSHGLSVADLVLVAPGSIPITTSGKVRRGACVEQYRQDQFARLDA

Cytochrome P450 2C9 = Cytochrome P450 2C9 (Homo sapiens, UniProt P11712)
Sequence of Cytochrome P450 2C9 (P11712 whole entry): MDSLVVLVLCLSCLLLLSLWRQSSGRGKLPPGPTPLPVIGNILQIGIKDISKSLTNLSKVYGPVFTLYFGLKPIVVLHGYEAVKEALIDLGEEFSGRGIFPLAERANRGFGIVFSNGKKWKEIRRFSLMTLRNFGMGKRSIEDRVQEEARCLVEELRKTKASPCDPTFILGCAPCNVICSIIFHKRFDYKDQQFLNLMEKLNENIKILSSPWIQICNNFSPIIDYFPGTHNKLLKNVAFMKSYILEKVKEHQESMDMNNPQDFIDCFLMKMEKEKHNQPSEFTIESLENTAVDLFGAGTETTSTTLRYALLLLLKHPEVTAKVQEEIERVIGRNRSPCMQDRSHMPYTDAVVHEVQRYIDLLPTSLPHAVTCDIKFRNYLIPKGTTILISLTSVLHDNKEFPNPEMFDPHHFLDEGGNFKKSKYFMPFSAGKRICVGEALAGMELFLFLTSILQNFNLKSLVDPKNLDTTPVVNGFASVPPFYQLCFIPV

Cytochrome P450 2C19 = Cytochrome P450 2C19 (Homo sapiens, UniProt P33261); experiment: qHTS Assay for Inhibitors and Substrates of Cytochrome P450 2C19. [Related pubchem assays: 410 ]; format: ADME; settings: read-out: Potency

Sequence of Induced myeloid leukemia cell differentiation protein Mcl-1 (Q07820 whole entry): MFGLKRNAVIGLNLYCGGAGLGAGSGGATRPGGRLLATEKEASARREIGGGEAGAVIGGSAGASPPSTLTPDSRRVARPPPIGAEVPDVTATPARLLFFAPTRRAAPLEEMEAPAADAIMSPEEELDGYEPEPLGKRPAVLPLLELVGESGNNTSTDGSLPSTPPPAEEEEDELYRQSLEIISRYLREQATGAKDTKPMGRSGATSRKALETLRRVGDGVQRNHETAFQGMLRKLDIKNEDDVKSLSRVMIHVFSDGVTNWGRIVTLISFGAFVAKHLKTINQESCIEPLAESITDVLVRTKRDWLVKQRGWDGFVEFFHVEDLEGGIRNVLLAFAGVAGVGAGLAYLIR

For `COc1cc(NC(=O)c2noc3c2CCC3)c(OC)cc1Cl`, the IC50 [1] was 11.1 µM (not active) and the IC50 (Bcl-2-like protein 1) was > 109 µM (not active).

With `COc1ccccc1-n1nnnc1SCc1cc2c(cc1Br)OCO2` the IC50 [2] was 1.36 µM (not active) and the IC50 (14-3-3 protein gamma) was > 50 µM (not active).

In the case of `NC(=O)Cn1c(=O)n(Cc2ccco2)c(=O)c2c3c(sc21)CCCCC3`, the EC50 [3] is reported as > 120 µM (not active), the EC50 (H4) is reported as > 120 µM (not active) and the IC50 (Large T antigen) is reported as 33 µM (active). For the same compound, the EC50 [4] was > 120 µM (not active), the IC50 (Estrogen receptor beta) was < 0.023 µM (not active) and the AC50 (Cytochrome P450 3A4) was 25.1 µM (inconclusive).

In the case of `COc1cc(/C=N/NC(=O)c2cccc(NC(=O)c3ccccc3)c2)ccc1O`, the EC50 [5] is reported as 5.62 µM (active).

With `C/C(=N\O)C(=O)NCc1ccccn1` the IC50 (14-3-3 protein gamma) was > 50 µM (not active).

In the case of `CC(=O)Nc1ccc(/C=N/Nc2c(Cl)cc(Cl)cc2Cl)cc1`, the IC50 (NADPH oxidase 1) is reported as > 17 µM (not active).

For `CC1Cc2ccccc2N1C(=O)CSc1nnc(-c2ccc(S(=O)(=O)N3CCCC3)cc2)o1` (stereo not drawn), the EC50 (Estrogen receptor) was 7.79 µM (active).

For `Cc1ccc2nc(NC(=O)c3cccc(-c4cc5ccccc5oc4=O)c3)sc2c1`, the EC50 [6] was 1.09 µM (active), the AC50 [7] was 1.71 µM (active) and the EC50 [8] was > 60 µM (not active). For the same compound, the CC50 (Vero) was > 100 µM (active).

In the case of `Clc1ccc(C[n+]2c(-c3ccccc3)cc(-c3ccccc3)cc2-c2ccccc2)cc1.[O-][Cl+3]([O-])([O-])[O-]`, the EC50 (Melanocortin receptor 4) is reported as > 89.2 µM (inactive), the EC50 [6] is reported as < 0.1 µM (active) and the EC50 (cells) is reported as 0.173 µM (active). For the same compound, the EC50 [8] was > 60 µM (not active) and the AC50 (INS1) was 2.05 µM (active).

For `COc1ccc(C2=CC3=C(Br)C(=O)C(C)(OC(=O)c4cccs4)C(=O)C3=CO2)cc1` (stereo not drawn), the IC50 [1] was 16.8 µM (not active), the AC50 [9] was 2.35 µM (active) and the EC50 [10] was 29.1 µM (active). For the same compound, the IC50 (Bcl-2-like protein 1) was > 109 µM (not active), the EC50 [11] was 32.8 µM (active) and the AC50 [12] was > 100 µM (inactive).

In the case of `COc1ccccc1-c1nnc(NC(C)=O)s1`, the AC50 (Cytochrome P450 2C9) is reported as “inconclusive” and the EC50 [5] is reported as 11 µM (not active).

With `COc1ccc(OC2C=CC(C#Cc3ccc(Br)cc3)OC2CO)c(C(C)(C)C)c1` (stereo not drawn) the AC50 (Cytochrome P450 2C19) was 3.16 µM (inconclusive).

With `COc1ccc(-c2nc(-c3ccc(OC)c(OC)c3)[nH]c2-c2ccc(OC)cc2)cc1` the IC50 (NADPH oxidase 1) was > 17 µM (not active).
